As usually defined, the EC50 is the concentration giving half of the maximal effect.

The assay has as its system HCV 1b genotype. Put plainly: HCV replicon assay (HCV-neo replicon cells, wild-type). The class given is cell-based, Hepatitis C virus. The conditions noted are these: HCV 1b genotype replicon. A digest of the protocol:
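Inhibition was tested in replicon-bearing cells, both wild-type HCV-neo and lines with NS5A resistance substitutions, using the O'Boyle et al. 2005 replicon method or luciferase-reporter formats.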

The mark [1] stands for this setting: Hepatitis C virus, class symbol, read-out: EC50 Range against HCV 1b.
[2] abbreviates: Hepatitis C virus, read-out: EC50 1b.

Where two headings read alike, the source gives them in different places.

For the compound `CC(C)[C@H](NC(=O)Cc1ccccc1)C(=O)Nc1ccc(-c2cnc(-c3ccc(NC(=O)[C@@H](NC(=O)Cc4ccccc4)C(C)C)cc3)o2)cc1` [JG-12, (2S,2′S)-N,N′-(1,3-oxazole-2,5-diyldi-4,1-phenylene)bis(3-methyl-2-((phenylacetyl)amino)butanamide)], under setting [1], the EC50 fell in the range of 4.57 to 99 nM.

Take `CSCC[C@H](NC(=O)Cc1ccccc1)C(=O)Nc1ccc(-c2cnc(-c3ccc(NC(=O)[C@H](CCSC)NC(=O)Cc4ccccc4)cc3)o2)cc1` [JG-13, (2S,2′S)-N,N′-(1,3-oxazole-2,5-diyldi-4,1-phenylene)bis(4-(methylsulfanyl)-2-((phenylacetyl)amino)butanamide)]: the concentration for a half-maximal effect (EC50) under setting [1] lay in the range of 100 to 999 nM.

For the compound `CSC[C@H](NC(=O)Cc1ccccc1)C(=O)Nc1ccc(-c2cnc(-c3ccc(NC(=O)[C@H](CSC)NC(=O)Cc4ccccc4)cc3)o2)cc1` [JG-14, (2R,2′R)-N,N′-(1,3-oxazole-2,5-diyldi-4,1-phenylene)bis(3-(methylsulfanyl)-2-((phenylacetyl)amino)propanamide)], the EC50 under setting [1] is 100 to 999 nM.

`COCC[C@H](NC(=O)Cc1ccccc1)C(=O)Nc1ccc(-c2cnc(-c3ccc(NC(=O)[C@H](CCOC)NC(=O)Cc4ccccc4)cc3)o2)cc1` [JG-15, (2S,2′S)-N,N′-(1,3-oxazole-2,5-diyldi-4,1-phenylene)bis(4-methoxy-2-((phenylacetyl)amino)butanamide)]: the EC50 under setting [1] lay within 100 to 999 nM.

With `CC(C)(C)OC[C@H](NC(=O)Cc1ccccc1)C(=O)Nc1ccc(-c2cnc(-c3ccc(NC(=O)[C@H](COC(C)(C)C)NC(=O)Cc4ccccc4)cc3)o2)cc1` [JG-16, (2S,2′S)-N,N′-(1,3-oxazole-2,5-diyldi-4,1-phenylene)bis(3-tert-butoxy-2-((phenylacetyl)amino)propanamide)], the EC50 under setting [1] fell in the range of 100 to 999 nM.

Regarding `CCCC[C@H](NC(=O)Cc1ccccc1)C(=O)Nc1ccc(-c2cnc(-c3ccc(NC(=O)[C@H](CCCC)NC(=O)Cc4ccccc4)cc3)o2)cc1` [JG-17, (2S,2′S)-N,N′-(4,4′-(oxazole-2,5-diyl)bis(4,1-phenylene))bis(2-(2-phenylacetamido)hexanamide)], the EC50 (class symbol, read-out: EC50 Range against HCV 1b) was 100 to 999 nM.

As to `O=C(Cc1ccccc1)NC1(C(=O)Nc2ccc(-c3cnc(-c4ccc(NC(=O)C5(NC(=O)Cc6ccccc6)CC5)cc4)o3)cc2)CC1` [JG-18, N,N′-(1,3-oxazole-2,5-diyldi-4,1-phenylene)bis(1-((phenylacetyl)amino)cyclopropanecarboxamide)], under setting [1], the EC50 lay within 1000 to 10000 nM.

As to `CO[C@H](C(=O)N1CCC[C@H]1C(=O)Nc1ccc(-c2cnc(-c3ccc(NC(=O)[C@@H]4CCCN4C(=O)[C@@H](OC)c4ccccc4)cc3)o2)cc1)c1ccccc1` [JG-19, (2S,2′S)-N,N′-(1,3-oxazole-2,5-diyldi-4,1-phenylene)bis(1-((2S)-2-methoxy-2-phenylacetyl)-2-pyrrolidinecarboxamide)], the EC50 is, setting by setting: under setting [1], 4.57 to 99 nM; under setting [2], 9 nM.

For `O=C(Nc1ccc(-c2cnc(-c3ccc(NC(=O)[C@@H]4CCCN4C(=O)[C@@H](O)c4ccccc4)cc3)o2)cc1)[C@@H]1CCCN1C(=O)[C@@H](O)c1ccccc1` [JG-20, (2S,2′S)-N,N′-(1,3-oxazole-2,5-diyldi-4,1-phenylene)bis(1-((2S)-2-hydroxy-2-phenylacetyl)-2-pyrrolidinecarboxamide)], under setting [1], the EC50 was 4.57 to 99 nM.

On to `CC(O)(C(=O)N1CCC[C@H]1C(=O)Nc1ccc(-c2ncc(-c3ccc(NC(=O)[C@@H]4CCCN4C(=O)[C@@](C)(O)c4ccccc4)cc3)o2)cc1)c1ccccc1` (stereo partly drawn) [JG-22, (2S)-1-((2S)-2-hydroxy-2-phenylpropanoyl)-N-(4-(2-(4-((((2S)-1-(2-hydroxy-2-phenylpropanoyl)-2-pyrrolidinyl)carbonyl)amino)phenyl)-1,3-oxazol-5-yl)phenyl)-2-pyrrolidinecarboxamide], for which the EC50 is below 4.57 nM under setting [1] and below 5 nM under setting [2].

For `O=C(Nc1ccc(-c2cnc(-c3ccc(NC(=O)[C@@H]4CCCN4C(=O)[C@H](O)c4ccccc4)cc3)o2)cc1)[C@@H]1CCCN1C(=O)[C@H](O)c1ccccc1` [JG-23, (2S,2′S)-N,N′-(1,3-oxazole-2,5-diyldi-4,1-phenylene)bis(1-((2R)-2-hydroxy-2-phenylacetyl)-2-pyrrolidinecarboxamide)], the concentration for a half-maximal effect (EC50) under setting [1] was below 4.57 nM.

With `CO[C@@H](C(=O)N1CCC[C@H]1C(=O)Nc1ccc(-c2cnc(-c3ccc(NC(=O)[C@@H]4CCCN4C(=O)[C@H](OC)c4ccccc4)cc3)o2)cc1)c1ccccc1` [JG-25, (2S,2′S)-N,N′-(1,3-oxazole-2,5-diyldi-4,1-phenylene)bis(1-((2R)-2-methoxy-2-phenylacetyl)-2-pyrrolidinecarboxamide)], the EC50 under setting [1] fell in the range of 4.57 to 99 nM.

For the compound `O=C(Nc1ccc(-c2cnc(-c3ccc(NC(=O)[C@@H]4CCCN4C(=O)[C@H](O)c4ccccc4Cl)cc3)o2)cc1)[C@@H]1CCCN1C(=O)[C@H](O)c1ccccc1Cl` [JG-26, (2S,2′S)-N,N′-(1,3-oxazole-2,5-diyldi-4,1-phenylene)bis(1-((2R)-2-(2-chlorophenyl)-2-hydroxyacetyl)-2-pyrrolidinecarboxamide)], the EC50 under setting [1] is below 4.57 nM.

In the case of `O=C(C(=O)N1CCC[C@H]1C(=O)Nc1ccc(-c2cnc(-c3ccc(NC(=O)[C@@H]4CCCN4C(=O)C(=O)c4ccccc4)cc3)o2)cc1)c1ccccc1` [JG-27, (2S,2′S)-N,N′-(1,3-oxazole-2,5-diyldi-4,1-phenylene)bis(1-(oxo(phenyl)acetyl)-2-pyrrolidinecarboxamide)], the EC50 under setting [1] fell in the range of 4.57 to 99 nM.

As for `O=C(Nc1ccc(-c2cnc(-c3ccc(NC(=O)[C@@H]4CCCN4C(=O)c4cc5ccccc5o4)cc3)o2)cc1)[C@@H]1CCCN1C(=O)c1cc2ccccc2o1` [JG-28, (2S,2′S)-N,N′-(1,3-oxazole-2,5-diyldi-4,1-phenylene)bis(1-(1-benzofuran-2-ylcarbonyl)-2-pyrrolidinecarboxamide)], under setting [1], the EC50 was in the range of 100 to 999 nM.

With `O=C(Nc1ccc(-c2cnc(-c3ccc(NC(=O)[C@@H]4CCCN4C(=O)c4nc5ccccc5s4)cc3)o2)cc1)[C@@H]1CCCN1C(=O)c1nc2ccccc2s1` [JG-29, (2S,2′S)-N,N′-(1,3-oxazole-2,5-diyldi-4,1-phenylene)bis(1-(1,3-benzothiazol-2-ylcarbonyl)-2-pyrrolidinecarboxamide)], the EC50 under setting [1] fell in the range of 100 to 999 nM.

Regarding `O=C(Nc1ccc(-c2cnc(-c3ccc(NC(=O)[C@@H]4CCCN4C(=O)c4onc5ccccc45)cc3)o2)cc1)[C@@H]1CCCN1C(=O)c1onc2ccccc12` [JG-30, (2S,2′S)-N,N′-(1,3-oxazole-2,5-diyldi-4,1-phenylene)bis(1-(2,1-benzisoxazol-3-ylcarbonyl)-2-pyrrolidinecarboxamide)], under setting [1], the EC50 lay within 4.57 to 99 nM.

On to `O=C(C(=O)N1CCC[C@H]1C(=O)Nc1ccc(-c2cc(-c3ccc(NC(=O)[C@@H]4CCCN4C(=O)C(=O)c4ccccc4)cc3)[nH]n2)cc1)c1ccccc1` [JG-31, (2S,2′S)-N,N′-(1H-pyrazole-3,5-diyldi-4,1-phenylene)bis(1-(oxo(phenyl)acetyl)-2-pyrrolidinecarboxamide)], for which the EC50 under setting [1] lay within 4.57 to 99 nM.

Regarding `O=C(Nc1ccc(-c2cc(-c3ccc(NC(=O)[C@@H]4CCCN4C(=O)[C@H](O)c4ccccc4)cc3)[nH]n2)cc1)[C@@H]1CCCN1C(=O)[C@H](O)c1ccccc1` [JG-32, (2S,2′S)-N,N′-(1H-pyrazole-3,5-diyldi-4,1-phenylene)bis(1-((2R)-2-hydroxy-2-phenylacetyl)-2-pyrrolidinecarboxamide)], under setting [1], the EC50 was below 4.57 nM.

As to `O=C(Nc1ccc(-c2cc(-c3ccc(NC(=O)[C@@H]4CCCN4C(=O)[C@@H](O)c4ccccc4)cc3)[nH]n2)cc1)[C@@H]1CCCN1C(=O)[C@@H](O)c1ccccc1` [JG-33, (2S,2′S)-N,N′-(1H-pyrazole-3,5-diyldi-4,1-phenylene)bis(1-((2S)-2-hydroxy-2-phenylacetyl)-2-pyrrolidinecarboxamide)], under setting [1], the half-maximal effective concentration (EC50) is 4.57 to 99 nM.

Regarding `O=C(Nc1ccc(-c2cc(-c3ccc(NC(=O)[C@@H]4CCCN4C(=O)[C@H](O)c4ccccc4Cl)cc3)[nH]n2)cc1)[C@@H]1CCCN1C(=O)[C@H](O)c1ccccc1Cl` [JG-36, (2S,2′S)-N,N′-(1H-pyrazole-3,5-diyldi-4,1-phenylene)bis(1-((2R)-2-(2-chlorophenyl)-2-hydroxyacetyl)-2-pyrrolidinecarboxamide)], the EC50 under setting [1] was below 4.57 nM.

`CO[C@@H](C(=O)N1CCC[C@H]1C(=O)Nc1ccc(-c2cc(-c3ccc(NC(=O)[C@@H]4CCCN4C(=O)[C@H](OC)c4ccccc4)cc3)[nH]n2)cc1)c1ccccc1` [JG-37, (2S,2′S)-N,N′-(1H-pyrazole-3,5-diyldi-4,1-phenylene)bis(1-((2R)-2-methoxy-2-phenylacetyl)-2-pyrrolidinecarboxamide)]: the EC50 under setting [1] is below 4.57 nM.

Take `CO[C@H](C(=O)N1CCC[C@H]1C(=O)Nc1ccc(-c2cc(-c3ccc(NC(=O)[C@@H]4CCCN4C(=O)[C@@H](OC)c4ccccc4)cc3)[nH]n2)cc1)c1ccccc1` [JG-38, (2S,2′S)-N,N′-(1H-pyrazole-3,5-diyldi-4,1-phenylene)bis(1-((2S)-2-methoxy-2-phenylacetyl)-2-pyrrolidinecarboxamide)]: the EC50 under setting [1] was below 4.57 nM.

`C[C@@](O)(C(=O)N1CCC[C@H]1C(=O)Nc1ccc(-c2cc(-c3ccc(NC(=O)[C@@H]4CCCN4C(=O)[C@@](C)(O)c4ccccc4)cc3)[nH]n2)cc1)c1ccccc1` [JG-39, (2S,2′S)-N,N′-(1H-pyrazole-3,5-diyldi-4,1-phenylene)bis(1-((2S)-2-hydroxy-2-phenylpropanoyl)-2-pyrrolidinecarboxamide)]: the EC50 under setting [1] was below 4.57 nM and the EC50 under setting [2] was below 5 nM.

On to `O=C(Nc1ccc(-c2cc(-c3ccc(NC(=O)[C@@H]4CCCN4C(=O)c4cc5ccccc5o4)cc3)[nH]n2)cc1)[C@@H]1CCCN1C(=O)c1cc2ccccc2o1` [JG-40, (2S,2′S)-N,N′-(1H-pyrazole-3,5-diyldi-4,1-phenylene)bis(1-(1-benzofuran-2-ylcarbonyl)-2-pyrrolidinecarboxamide)], for which the EC50 under setting [1] is 100 to 999 nM.

For the origin of these results see patent US8735398B2 (Bristol-Myers Squibb Company, priority 2009, dated 2014).
